From US10040791B2, “Isoxazole derivative as mutant isocitrate dehydrogenase 1 inhibitor” (Daiichi Sankyo Company, Limited, priority 2014, dated 2018)
pIC50: −log10 of the molar value. Where two headings read alike, the source gives them in different places.

Key:
[1] = tested on: HT-1080 cells expressing IDH1R132C; assay: 2-HG production inhibitory activity using HT1080 cell; type: cell-based, human; settings: Homo sapiens; for pIC50: HT-1080, 2-HG production, HT1080 cells, read-out: Test Example 3 IC50
Procedure: Then, 100 μL of growth medium B was added to each well, further 25 μL of a solution of each compound diluted to a predetermined concentration with growth medium B was added to each well, and the cells were incubated at 37° C. for 2 days under 5% CO2. […] Then, 150 μL of ultrapure water was further added to each well, and the mixture was stirred by pipetting and stored at −20° C.
The preserved solutions were thawed at room temperature.

IDH1R132C = IDH1R132C (Homo sapiens (Human), UniProt O75874, R132C); assay: Inhibitory activity against IDH1R132C enzyme (NADPH detection, WST-8); type: biochemical; settings: 10 nM, residual NADPH detected with WST-8, read-out: Test Example 1 IDH1 R132C IC50
[2] = tested on: HT1080 xenografted mice (IDH1R132C); assay: 2-HG production inhibitory activity using HT1080 xenografted mice; type: in vivo, mouse; settings: Mus musculus, HT-1080, po, 6 h, read-out: Test Example 5 Ratio (%)
Procedure: HT1080 xenografted mice having successfully engrafted tumors were given by oral gavage each compound at 75 mg/kg a total of three times twice a day. The compound was suspended in a vehicle solution at 7.5 mg/mL using a homogenizer. Then, the suspension was stored at −20° C., thawed immediately before the administration, and given to mice. A negative control group for the test was given a vehicle by oral gavage. The body weights of the mice were measured using an automatic balance for small animals. The dosing solution was administered at a dose of 10 mL/kg body weight.
6 hours after the final administration, each mouse was euthanized with carbon dioxide. A portion of a tumor was collected, and its weight was measured using an electronic balance. Then, the tumor was frozen on dry ice. To the frozen tumor, methanol was added in an amount of 14 times the tumor weight. The resulting tumor was homogenized with Beads shocker (Yasui Kikai Corp.) and then incubated for 15 minutes in a freezer at −20° C. After centrifugation at 15000 rpm at 4° C. for 15 minutes using a high-speed refrigerated microcentrifuge, 250 μL of methanol and 400 μL of ultrapure water were added to 150 μL of the obtained supernatant. The prepared samples were subjected to 2-HG measurement.

[3] = 2-HG production, HT1080 xenografted mice

Sequence of IDH1R132C (O75874 whole entry R132C): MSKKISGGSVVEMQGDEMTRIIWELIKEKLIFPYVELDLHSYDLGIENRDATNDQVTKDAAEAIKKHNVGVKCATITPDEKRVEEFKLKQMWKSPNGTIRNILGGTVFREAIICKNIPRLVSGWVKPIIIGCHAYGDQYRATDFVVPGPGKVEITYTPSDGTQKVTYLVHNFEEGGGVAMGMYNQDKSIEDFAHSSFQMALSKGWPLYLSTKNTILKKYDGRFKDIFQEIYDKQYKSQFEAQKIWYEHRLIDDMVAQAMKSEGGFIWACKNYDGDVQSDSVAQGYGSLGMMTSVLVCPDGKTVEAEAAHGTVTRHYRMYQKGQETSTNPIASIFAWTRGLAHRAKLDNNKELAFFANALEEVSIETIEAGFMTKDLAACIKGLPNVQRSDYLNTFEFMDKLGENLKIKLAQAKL

SMILES	pIC50 [1]	pIC50 (IDH1R132C)	response vs control in vivo at 75 mg/kg [2, 3]	IC50 ([1]; HT-1080, read-out: Test Example 3 IC50 (nM))	response vs control in vivo at 75 mg/kg [2]
COC1(c2onc(-c3c(Cl)cc(Cl)cc3Cl)c2C(=O)n2cc3c4c(cccc42)/C(=C/C(=O)O)CC3)CCC1 [Example 12, (2E)-[1-{[5-(1-Methoxycyclobutyl)-3-(2,4,6-trichlorophenyl)-1,2-oxazol-4-yl]carbonyl}-3,4-dihydrobenzo[cd]indol-5(1H)-ylidene]ethanoic acid]	7.62	6.84	7%	–	–
CC(C)(F)c1onc(-c2c(Cl)cc(Cl)cc2Cl)c1C(=O)n1ccc2c3c(ccc21)CCC(C(=O)O)C3 (stereo not drawn) [Example 18, 3-{[5-(2-Fluoropropan-2-yl)-3-(2,4,6-trichlorophenyl)-1,2-oxazol-4-yl]carbonyl}-6,7,8,9-tetrahydro-3H-Benzo[e]indole-8-carboxylic acid]	6.87	6.79	56%	–	–
Cc1cn(C(=O)c2c(-c3c(Cl)cc(Cl)cc3Cl)noc2C(C)(C)F)c2cccc(/C=C/C(=O)O)c12 [Example 21, (2E)-3-(1-{[5-(2-Fluoropropan-2-yl)-3-(2,4,6-trichlorophenyl)-1,2-oxazol-4-yl]carbonyl}-3-methyl-1H-indol-4-yl)prop-2-enoic acid]	–	7.02	–	56 nM	14%
CC(C)(C)c1onc(-c2c(Cl)cc(Cl)cc2Cl)c1C(=O)n1ccc2c(/C=C/C(=O)O)cccc21 [Example 22, (2E)-3-(1-{[5-(tert-Butyl)-3-(2,4,6-trichlorophenyl)-1,2-oxazol-4-yl]carbonyl}-1H-indol-4-yl)prop-2-enoic acid]	6.96	6.72	13%	–	–

Continued by rising pIC50 [1], values first:

pIC50 [1]	pIC50 (IDH1R132C)	SMILES	response vs control in vivo at 75 mg/kg [2, 3]	IC50 ([1]; HT-1080, read-out: Test Example 3 IC50 (nM))	response vs control in vivo at 75 mg/kg [2]
7.05	6.97	CC(C)(F)c1onc(-c2c(F)cc(Cl)cc2Cl)c1C(=O)n1cc2c3c(cccc31)/C(=C/C(=O)O)CC2 [Example 16, (2E)-[1-{[3-(2,4-Dichloro-6-fluorophenyl)-5-(2-fluoropropan-2-yl)-1,2-oxazol-4-yl]carbonyl}-3,4-dihydrobenzo[cd]indol-5(1H)-ylidene]ethanoic acid]	32%	–	–
7.19	6.77	CC1(c2onc(-c3c(Cl)cc(Cl)cc3Cl)c2C(=O)n2cc3c4c(cccc42)/C(=C/C(=O)O)CC3)CC(F)(F)C1 [Example 19]	79%	–	–
7.29	6.83	CC(C)(F)c1onc(-c2c(Cl)cc(Cl)cc2Cl)c1C(=O)n1cc2c3c(cccc31)/C(=C/C(=O)O)CC2 [Example 13, (2E)-[1-{[5-(2-Fluoropropan-2-yl)-3-(2,4,6-trichlorophenyl)-1,2-oxazol-4-yl]carbonyl}-3,4-dihydrobenzop[cd]indol-5(1H)-ylidene]ethanoic acid]	28%	–	–
7.30	6.75	Cc1cn(C(=O)c2c(-c3c(Cl)cc(Cl)cc3Cl)noc2C2(C)CCC2)c2cccc(/C=C/C(=O)O)c12 [Example 10, (2E)-3-(3-Methyl-1-{[5-(1-methylcyclobutyl)-3-(2,4,6-trichlorophenyl)-1,2-oxazol-4-yl]carbonyl}-1H-indol-4-yl)prop-2-enoic acid]	27%	–	–
7.57	7.25	COC1(c2onc(-c3c(Cl)cc(Cl)cc3Cl)c2C(=O)n2cc(C)c3c(/C=C/C(=O)O)cccc32)COC1 [Example 4, (2E)-3-(1-{[5-(3-Methoxyoxetan-3-yl)-3-(2,4,6-trichlorophenyl)-1,2-oxazol-4-yl]carbonyl}-3-methyl-1H-indol-4-yl)prop-2-enoic acid]	15%	–	–
7.66	7.26	CC1(c2onc(-c3c(Cl)cc(Cl)cc3Cl)c2C(=O)n2cc3c4c(cccc42)/C(=C/C(=O)O)CC3)COC1 [Example 8, (2E)-[1-{[5-(3-Methyloxetan-3-yl)-3-(2,4,6-trichlorophenyl)-1,2-oxazol-4-yl]carbonyl}-3,4-dihydrobenzo[cd]indol-5(1H)-ylidene]ethanoic acid]	67%	–	–
